Reference: patent US6440401B1, “2-phenyl-benzimidazolesulfonic acids as UV-B filters” (Merck Patent Gesellschaft Mit Beschraenkter Haftung, priority 2000, dated 2002)

Test: UV absorption maximum
Assay type: physicochemical
Description: 108 parts of o-phenylenediamine are introduced into 500 parts of H2SO4 (>96%) and then 800 parts of oleum (65%) are added dropwise, the temperature being maintained at a maximum of 120° C. After 15 min, the mixture is cooled to 70° C. and 120 parts of benzoic acid are added. The mixture is heated for 2 h at 180° C. The mixture is slowly hydrolysed with 2 500 parts of water, the temperature being maintained below 10° C. The precipitate (crystals) is filtered off with suction, the crude product is suspended in 8 parts of water and dissolved with 32% sodium hydroxide solution at pH=7. The solution is stirred with activated carbon until colorless, and thereafter precipitation is induced using 96% H2SO4 by establishing a pH=1-2. 300 parts of 2-phenylbenzimidazole-4,6-disulfonic acid are obtained. The compound has an absorption maximum in the UV-B region at λmax=308 nm.

**Q.** With O=S(=O)(O)c1cc(S(=O)(=O)O)c2[nH]c(-c3ccccc3)nc2c1 [2-phenylbenzimidazole-4,6-disulfonic acid] as the compound, how does the “absorption maximum in the UV-B region, λmax” value read?
**A.** The value was 308 nm.
